Experimental data taken from US10617749B1, “Composition of matter and methods for alteration of dendritic cell metabolism to augment cancer vaccine efficacy” (Duke University, priority 2016, dated 2020).
Entries after “also recorded” stand apart in the source; their conditions may differ.

Tests used:
[1] = test system: BRAFV600EPTEN−/− cells; assay: Soft agar colony formation assay; format: cell-based, mouse; details: 15 days in presence or absence of ETO
Protocol: Complete growth media—0.7% agar was overlaid with complete growth media—[…] containing 10,000 cells and additional complete growth media. After 2 weeks, colonies were stained with MTT(Sigma) to identify viable colonies and imaged by a ChemiDoc XRSplus system as previously described. Images were analyzed with NIH ImageJ to enumerate colony number.

[2] = test system: OT-1 CD8+ T cells; assay: T cell proliferation assay; format: cell-based, mouse; details: SIINFEKL-loaded BMDCs co-incubated with OT-1 splenocytes
Protocol: Splenocytes of OT-1 mice (H-2^b) were isolated and stained with CellTrace Violet (ThermoFisher). Preconditioned DCs were loaded with ovalbumin peptide SIINFEKL, and co-cultured at a DC:splenocyte ratio of 40,000:120,000 cells for 72 hrs. CD8+ T cell proliferation was measured by the dilution of Cell Trace Violet dye by flow cytometry.

[3] = test system: DC-induced CD4+ FoxP3+ Tregs; assay: In vitro Treg assay; format: cell-based, mouse
Protocol: (§1) In vivo Treg assay. DCs (C57, H-2^b) were pre-treated for 48 hours and delivered by intradermal injection into the footpad of Foxp3-mRFP mice. Draining inguinal and popliteal lymph nodes were resected 5 days later and analyzed for CD4^+ Foxp3^+ Tregs. In vitro Treg assay, DCs (Balb/c, H-2^d) were pre-treated for either 24 or 48 hrs, and re-plated at a 1:3 DC:T-cell ratio with purified naïve Foxp3-mRFP(H-2^b) CD4^+ Tcells. These co-cultures were incubated for 6 days and quantitated for CD4^+ FoxP3^+ Tregs by flow cytometry.
(§2) Murine bone marrow-derived DCs (BMDCs) were harvested and differentiated as previously described and purified using CD11c microbeads (Miltenyi Biotec) according to manufacturer's protocol. DC purity was monitored by flow cytometry and consistently found to be >95% CD11c+F4/80-. BRAFV600EPTEN−/−-Wnt5aKD and BRAFV600EPTEN−/−-NTC cell lines were generated and cultured as previously described. DC2.4, a murine dendritic cell line was kindly provided by Dr. Kenneth L. Rock (University of Massachusetts Medical School), and cultured as previously described. DC2.4β-cateninKD, DC2.4-CPT1AKD, and DC2.4-NTC stable cell lines were generated using a β-catenin-targeted, CPT1A-targeted, or control shRNA-expressing lentivirus followed by puromycin selection. DCs were treated with Wnt3a (100 ng/mL), Wnt5a (200 ng/mL), LPS (1 μg/mL), 1-MT, 2DG (1 mM), or ETO (100 µM) vs vehicle control either for 24 or 48 hrs prior to their use in both in vitro and in vivo experiments.

[4] = test system: human monocyte-derived DCs; assay: OCR analysis of human monocyte-derived DCs; format: cell-based; details: human DCs pre-treated with Wnt5a 48 hours, short-term ETO
Protocol: Human DCs were differentiated from harvested peripheral blood mononuclear cells and pre-treated with Wnt5a 48 hours prior to OCR analysis. Short-term incubation with ETO was performed prior to analysis.
(§3) DC energy metabolism was measured using the XF^e24 extracellular flux analyzer (Seahorse Bioscience), with the glycolysis stress test kit and the mitochondrial stress test kit as previously described (Everts et al., 2014; Zhao and Klimecki, 2015).
Human Monocyte-derived Dendritic Cells were generated as previously described.

[5] = test system: BRAFV600EPTEN−/− melanoma; assay: Syngeneic transplant tumor study; format: in vivo, C57BL/6 mice
Protocol: Mouse IFNγ ELISPOTPLUS (MABTECH) was performed according to manufacture guidelines. Imaging was conducted using a ChemiDoc System (BioRad) and quantified using ImageJ software.
Paraffin-embedded tissues were processed and stained following standard protocols and imaged with a Zeiss CLSM 700 confocal microscope. CD8 (BioLegend) and PD-L1 (Abcam) primary antibodies were utilized where indicated. Warp Red chromogen detection system (BioCare) was used for antigen visualization.
BRAFV600EPTEN−/− cells line were established as previously described. 5×10^5 cells were implanted by subcutaneous injection into syngeneic C57 mice. Tumor growth was monitored by caliper measurement. Etomoxir (Sigma, ETO) was administered daily by oral gavage (25 mg/kg/day). Anti-PD-1 rat mAb or rat IgG2a isotype control (BioXCell) was delivered every 3 days by intraperitoneal injection (250 μg/dose).

[6] = test system: autochthonous BRAFV600EPTEN−/− melanoma; assay: Autochthonous tumor study with adoptively transferred pretreated DCs; format: in vivo, transgenic mice
Protocol: B6.Cg-Braftm1Mmcm Ptentm1Hwu Tg(Tyr-cre/ERT2 H-2b)13Bos/BosJ (BRAFV600EPTEN−/−, H-2b), transgenic mice were subdermally injected with 4-HT (Sigma, 38.75 μg/mice) to induce primary melanoma development. Three days prior to 4-HT injection, 1×10^6 cells DCs pretreated with Wnt5a+/−ETO were washed and delivered by intra-dermal injection into the hind leg foot pads every 3-4 days until the conclusion of the experiment. Melanoma growth was monitored by orthagonal caliper measurements every 3-4 days between day 15 to day 32.

[7] = test system: DC IDO; assay: IDO enzymatic assay (kynurenine HPLC); format: cell-based, mouse
Protocol: DC IDO enzyme activity was measured by the conversion of L-tryptophan to L-kynurenine in conditioned media by HPLC (Pallotta et al., 2011). Intracellular hemin levels were measured using a colorimetric assay kit (BioVision).

[8] = test system: murine DCs; assay: qrt-PCR / ELISA gene and cytokine expression in murine DCs; format: cell-based; details: BMDCs, qrt-PCR
Protocol: Total RNA was isolated by RNeasy Plus Mini Kit(Qiagen). RNA(500 ng) was used in cDNA Synthesis (iScript, BioRad). Quantification of mRNA for genes involved in PPARγ signaling was performed using Mouse PrimePCR PPAR Array according to the manufacturer's protocol (BioRad). Real-time PCR was performed using an ABI7500 Real-Time PCR system (Life Technologies). Data analysis utilized the PrimePCR Analysis Software (BioRad). Conventional qPCR was performed using validated primers (Table 1) and SsoAdvanced Universal SYBR Green Super mix (BioRad) or Taqman probes (Applied Biosystems) for heme synthesis enzymes.
Murine IL-6 (eBioscience) and IL-12p40 (Becton Dickinson) ELISAs were performed according to manufacture's protocol.

[9] = test system: BMDCs; assay: DC viability, Annexin V/PI flow cytometry; format: cell-based, murine; details: BMDCs treated 48 hours
Description: Data is representative of two-independent experiments.

[10] = test system: bone marrow-derived DCs (BMDCs); assay: DC oxygen consumption rate (OCR) / OXPHOS, extracellular flux analysis; format: cell-based, murine; details: murine DCs pre-treated with Wnt5a vs Wnt5a+ETO
Protocol: as §3, §2

[11] = test system: DC-induced CD4+ Foxp3+ Tregs in draining lymph nodes; assay: In vivo Treg assay; details: conditioned primary DCs transferred into footpad of FoxP3-mRFP reporter mice
Protocol: as §1

[12] = test system: CPT1a; assay: CPT1a silencing by shRNA-expressing lentiviral vector (qrt-PCR, Western blot); format: cell-based, mouse
Description: The application includes the sequence listing that is concurrently filed in computer readable form. This sequence listing is incorporated by reference herein.
as §2, with “experiments. […]” for “experiments.”
Total RNA was isolated by RNeasy Plus Mini Kit(Qiagen). […] Quantification of mRNA for genes involved in PPARγ signaling was performed using Mouse PrimePCR PPAR Array according to the manufacturer's protocol (BioRad). […]

[13] = DCs pretreated with Wnt5a+/−ETO

TIDC IDO enzyme activity (kynurenine) ([7]; TIDCs purified from BRAFV600E-PTEN−/−-NTC tumors) | Compound | intrinsic proliferative capacity of tumor cells (soft agar colonies) [1] | DC-mediated antigen-specific CD8+ T cell proliferation [2] | DC-mediated Treg differentiation in vitro, IDO−/− DCs ([3]; DCs derived from IDO−/− mice +/−ETO) | DC-mediated Treg differentiation in vitro ([3]; pre-treated DCs co-cultured with naïve CD4+ T cells) | Wnt5a-induced DC mitochondrial respiration (OCR) [4] | primary melanoma growth, ETO combined with anti-PD-1 antibody ([5]; ETO 25 mg/kg/day oral gavage plus anti-PD-1 250 μg/dose i.p. every 3 days) | primary melanoma progression, monotherapy ([5]; ETO 25 mg/kg/day oral gavage, anti-PD-1 250 μg/dose i.p. every 3 days) | Tregs within draining LN tissues [6, 13] | melanoma-infiltrating CD8+ T cells [6, 13] | primary melanoma progression ([6]; DCs pretreated with Wnt5a+/−ETO transferred to foot pads) | DC IDO enzymatic activity (kynurenine) ([7]; purified DC cultures, Wnt5a or Wnt5a+ETO) | IL-6 and IL-12 expression in primary DCs [8] | DC viability [9] | Wnt5a-induced DC OXPHOS / mitochondrial respiration (OCR) [10] | DC-mediated Treg differentiation in vivo [11] | silencing of mouse CPT1a expression [12]
lower levels of IDO enzyme activity | CCOC(=O)[C@@]1(CCCCCCOc2ccc(Cl)cc2)CO1 [ETO, etomoxir] | has no impact on the intrinsic proliferative capacity of this tumor model | significantly augment in vitro DC-dependent T cell proliferation to levels similar to that of LPS stimulation; also recorded: potently induce DC-mediated T cell activation to levels similar to those seen in response to LPS-treatment of DCs; also recorded: enhances the ability of DCs to induce OT-1 T cell proliferation | dramatically suppress the ability of IDO^−/− DCs to drive Treg differentiation; also recorded: inhibition of DC-mediated Treg generation extends beyond IDO activity | ablate; also recorded: potently suppress the ability of Wnt5a-conditioned DCs to drive Treg differentiation; also recorded: inhibits Wnt5a-conditioning of DC-mediated Treg development in vitro | completely ablate Wnt5a induction of both murine and human DC mitochondrial respiration | significantly enhanced the anti-tumor efficacy of the anti-PD-1 antibody; also recorded: augments anti-PD-1 antibody suppression | suppresses the progression of BRAF^V600E-PTEN^−/− melanoma similar to anti-PD-1 antibody monotherapy | suppression of Tregs within draining LN tissues | enhanced numbers of melanoma-infiltrating CD8+ T cells | potently suppress primary melanoma progression | completely eliminated this effect; also recorded: reverses Wnt5a-stimulation of DC IDO enzymatic activity | alterations in cytokine expression were further recapitulated | does not impair DC viability; also recorded: not impacting DC viability | ablate Wnt5a-induced DC OXPHOS; also recorded: completely ablate Wnt5a induction of both murine and human DC mitochondrial respiration; also recorded: abrogates Wnt5a-induced DC OXPHOS | ablate; also recorded: potently suppress the ability of Wnt5a-conditioned DCs to drive Treg differentiation; also recorded: inhibits Wnt5a-conditioning of DC-mediated Treg development in vivo | –
– | SEQ ID NO:1: shRNA sequence for silencing mouse CPT1a (guide CCGGGCTATGGTGTTTCCTACATTACTCGAGTAATGTAGGAAACACCATAGCTTTTTG) | – | – | – | – | – | – | – | – | – | – | – | – | – | – | – | effective for silencing the expression of mouse CPT1a
